Entries after “also recorded” stand apart in the source; their conditions may differ.
Legend:
[1] = test system: PC12 cells; assay: CellTox assay, survival of PC12 cells under serum deprivation; format: cell-based; conditions: for protection of PC12 cells from serum deprivation-induced cell death (CellTox): compound 500 nM, 24 h, after 4 h serum starvation, NGF 100 ng/mL as control (Figure 9); for protection of PC12 cells from serum deprivation-induced death (CellTox): compound 1 μM, NGF 100 ng/mL as control (Figure 10)
Method: PC12 cells were obtained from LGC Promochem and cultured under specified conditions. Cells were grown in DMEM medium (Thermo Fischer Scientific, cat# 10566016) containing 10% horse serum (Thermo Fischer Scientific, cat# 16050122), 5% fetal bovine serum (Thermo Fischer Scientific, cat# 10270106), 100 units/mL penicillin, and 0.1 mg/mL streptomycin (Thermo Fischer Scientific, cat# 15140122) at 5% CO2 and 37°C. Cells were used between passages 5 and 20.
CellTox assay (G8742, Promega, Leiden, Belgium) was used to assess the survival of PC12 cells under serum deprivation conditions. PC12 cells were plated in 96-well plates, starved from serum for 4 h, and subsequently treated with NGF (100 ng/mL) or compound (500 nM) for 24 h. CellTox assay reagents and Hoescht (1:10,000, H3570, Invitrogen, Massachusetts, USA) were then added to each well for 30 min, and then, cells were imaged with a Zeiss AXIO Vert A1 fluorescent microscope. CellTox positive cells were normalized to the total number of cells for each image.
Initially, we tested compounds ENT-A002, ENT-A007, ENT-A009, ENTA025, ENT-A026, ENT-A033, ENT-A034, ENT-A035, ENT-A036, ENT-A037, ENT-A046, ENT-A047, ENT-A055, and ENT-A056 for their ability to protect PC12 cells from serum deprivation-induced cell death as well as for their ability to activate TrkA downstream pro-survival signaling kinases Akt and Erk1/2 (Figures 9A–C). We opted to employ PC12 cells, which express receptors TrkA and p75 and have been routinely used for investigating NGF-TrkA signaling. PC12 cells were subjected to a period of nutrient deprivation (without fetal bovine serum and horse serum in their culture medium) for 4 h. Following this, NGF (100 ng/mL) or one of the compounds (500 nM or 1 μM) was administered and allowed to interact with the cells for 24 h. Following that, CellTox and Hoescht dyes were added and cells were imaged to assess cell death. Control cases involved cells cultured in full medium (serum), cells under starvation conditions (serum-free), and cells under starvation conditions treated with DMSO (SF+DMSO).

[2] = test system: NIH-3T3 TrkB-expressing cell line; assay: CellTox Green cytotoxicity assay in NIH-3T3 cells stable transfected with TrkB under serum deprivation; format: cell-based; conditions: compound 1 μM, 24 h, after 24 h serum starvation; BDNF 500 ng/mL as control
Method: We tested compounds on three cellular systems, primary cortical astrocytes from 2-day-old mice (as a natively TrkB-expressing neuronal population), and NIH-3T3 fibroblasts stable transfected with TrkB and NIH-3T3 naïve cells. Cells were grown with high-glucose DMEM medium supplemented with 10% fetal bovine serum (FBS), 100 μg/mL streptomycin, and 100 units/mL penicillin at 37°C in a humidified 5% CO2 atmosphere. Phosphorylation results presented here are in primary astrocytes, and cell toxicity assay results are in NIH-3T3 stable transfected cells with TrkB.
NIH-3T3 stable transfected cells with TrkB were plated in 96-well plates at a density of 10,000 cells/well, before carrying out serum starvation for 24 h. Cells were then treated for 24 h with either BDNF at 500 ng/mL (control) or the compounds at 1 μM.
For the cell toxicity assay, we used CellTox™ Green Dye (2,000 × , Promega) for the visualization of dead cells and Hoechst 33,342 solution (10,000 × ) for total cells. A ZEISS Axio Vert.A1 microscope was used for image capture, and the ImageJ software (https://imagej.nih.gov/ij/) was used for analysis. The number of CellTox positive cells was normalized against the total number of cells observed in each image.
The NIH-3T3 TrkB cell line, which is stable and transfected to specifically express the TrkB receptor, was used for the screening of the new compounds for their ability to protect cells from serum deprivation-induced apoptosis through the activation of the TrkB receptor. Cell death was induced by serum deprivation for 24 h and then BDNF (500 ng/mL), the native neurotrophin ligand of the TrkB receptor, or compounds ENT-A007, ENT-A009, ENTA025, ENT-A026, ENT-A033, ENT-A034, ENT-A035, ENT-A036, ENT-A037, ENT-A046, ENT-A047, ENT-A055, and ENT-A056 (1 μM) were added to the media for 24 h.

[3] = Metabolic stability in pooled human liver microsomes; format: in vitro ADME; conditions: 1 μM; for residual of time zero: pooled human liver microsomes 0.5 mg/mL, t = 60 min, NADPH; for parent structure loss (depletion) class: pooled human liver microsomes, 60 min
Method: For metabolic stability assessment, pooled human liver microsomes were employed at 0.5 mg/mL. Incubation conditions were optimized to ensure linear metabolite formation with respect to protein concentration and reaction time. All test compounds were assessed at 1 μM based on our ADMET standard operating procedures and protocols, also published previously (1 μM was selected based on our ADMET standard operating procedures and protocols also published previously) (Rogdakis et al., [2022]; Yilmaz et al., [2022]). Approximately 1 mM of NADPH served as a cofactor. Reactions took place in triplicates at 37°C. Negative and positive controls (low vs. rapid clearance) were included for low vs. rapid clearance. After 60 min, reactions were terminated.
Parent structure loss is classified as very slow (<5%), slow (5–19%), moderate (20–50%), fast (50–80%), or very fast (>80%). Such categories have been defined according to set criteria, namely, high metabolism (t1/2 value of <30 min), moderate metabolism (30 min <t1/2 value of <60 min), and low metabolism (t1/2 value of >60 min) (EMA, [2012], [2013]; FDA, [2020]).

Compound | protection of PC12 cells from serum deprivation-induced cell death (CellTox) [1] | protection of NIH-3T3-TrkB cells from serum deprivation-induced cell death (CellTox) [2] | protection of PC12 cells from serum deprivation-induced death (CellTox) [1] | also measured
C[C@]12CC[C@H](O)CC1=CC[C@@H]1[C@@H]2CC[C@@]2(C)[C@H]1CC[C@@]21CC=CCO1 [ENT-A002, (3S,17R)-3′,6′-dihydrospiro[5-androstene-17,2′-pyran]-3-ol] | did not show any protective effects | did not show any protective effects |  | 
C[C@]12CC[C@H](O)CC1=CC[C@@H]1[C@@H]2CC[C@@]2(C)[C@H]1CC[C@@]21CC=C(CO)CO1 [ENT-A008] | none of these compounds provided any protective effects | none of these compounds provided any protective effects |  | 
COC(=O)CSCC1=CCC2(CCC3C4CC=C5CC(O)CCC5(C)C4CCC32C)OC1 [ENT-A026, Methyl (3S,17R)-3-hydroxy-3’,6’-dihydrospiro[5-androstene-17,2’-pyran]-5’-yl-methylthio acetate] | none of these compounds provided any protective effects | none of these compounds provided any protective effects |  | 
CC12CCC(O)CC1=CCC1C2CCC2(C)C1CCC21CC=C(CC#N)CO1 [ENT-A033, (3S,17R)-3-hydroxy-3′,6′-dihydrospiro[5-androstene-17,2′-pyran]-5′-yl-acetonitrile] | none of these compounds provided any protective effects | none of these compounds provided any protective effects |  | 
C[C@]12CC[C@H](O)CC1=CC[C@@H]1[C@@H]2CC[C@@]2(C)[C@H]1CC[C@@]21CC=C(CF)CO1 [ENT-A034] | none of these compounds provided any protective effects | none of these compounds provided any protective effects |  | 
COc1ccc(COCC2=CC[C@@]3(CC[C@H]4[C@@H]5CC=C6C[C@@H](O)CC[C@]6(C)[C@H]5CC[C@@]43C)OC2)cc1 [ENT-A035] | none of these compounds provided any protective effects | none of these compounds provided any protective effects |  | 
C[C@]12CC[C@H](O)CC1=CC[C@@H]1[C@@H]2CC[C@@]2(C)[C@H]1CC[C@@]21CC=C(Cn2cc(CO)nn2)CO1 [ENT-A037, (3S,17R)-5′-[(4-(hydroxymethyl)-1H-1,2,3-triazol-1-yl)methyl]-3′,6′-dihydrospiro[5-androstene-17,2′-pyran]-3-ol] |  |  |  | melting point: 202 to 204 °C
C[C@]12CC[C@H](O)CC1=CC[C@@H]1[C@@H]2CC[C@@]2(C)[C@H]1CC[C@@]21CC=C(Cn2cc(CC3CCCCC3)nn2)CO1 [ENT-A047, (3S,17R)-5′-[(4-(cyclohexylmethyl)-1H-1,2,3-triazol-1-yl)methyl]-3′,6′-dihydrospiro[5-androstene-17,2′-pyran]-3-ol] |  |  |  | melting point: 181 °C (dec.)
CC12CCC(O)CC1=CCC1C2CCC2(C)C1CCC21CC=C(C=C2CCC2)CO1 [ENT-A065, (3S,17R)-5′-(cyclobutylidenemethyl)-3′,6′-dihydrospiro[5-androstene-17,2′-pyran]-3-ol] |  |  | promote cell survival as well as NGF does under stress conditions | 
CC12CCC(O)CC1=CCC1C2CCC2(C)C1CCC21CC=C(C=CBr)CO1 [ENT-A066, (3S,17R)-5′-(2-bromovinyl)-3′,6′-dihydrospiro[5-androstene-17,2′-pyran]-3-ol] |  |  | found to promote PC12 cell survival during stress conditions; also recorded: promote cell survival as well as NGF does under stress conditions | residual of time zero [3]: > 95%; parent structure loss (depletion) class [3]: very slow (very slow (<5%))
CC=CC1=CCC2(CCC3C4CC=C5CC(O)CCC5(C)C4CCC32C)OC1 [ENT-A068, (E, Z) (3S,17R)-5′-(prop-1-en-1-yl)-3′,6′-dihydrospiro[5-androstene-17,2′-pyran]-3-ol] |  |  | found to promote PC12 cell survival during stress conditions; also recorded: promote cell survival as well as NGF does under stress conditions | 
CCC1CCC2(CCC3C4CC=C5CC(O)CCC5(C)C4CCC32C)OC1 [ENT-A069, (3S,17R)-5′-(ethyl)-3′,6′-tetrahydrospiro[5-androstene-17,2′-pyran]-3-ol] |  |  | found to promote PC12 cell survival during stress conditions; also recorded: promote cell survival as well as NGF does under stress conditions | residual of time zero [3]: 95%; parent structure loss (depletion) class [3]: slow (slow (5–19%))
CCC1=CCC2(CCC3C4CC=C5CC(O)CCC5(C)C4CCC32C)OC1 [ENT-A070, (3S,17R)-5′-ethyl-3′,6′-dihydrospiro[5-androstene-17,2′-pyran]-3-ol] |  |  | found to promote PC12 cell survival during stress conditions; also recorded: promote cell survival as well as NGF does under stress conditions | residual of time zero [3]: > 95%; parent structure loss (depletion) class [3]: very slow (very slow (<5%))
C[C@]12CC[C@H](O)CC1=CC[C@@H]1[C@@H]2CC[C@@]2(C)[C@H]1CCC21CC(=CC#N)C1 (stereo partly drawn) [ENT-A077] |  |  |  | melting point: 161 to 163 °C
C[C@]12CC[C@H](O)CC1=CC[C@@H]1[C@@H]2CC[C@@]2(C)[C@H]1CCC21CC(=CC(=O)O)C1 (stereo partly drawn) [ENT-A080] |  |  |  | melting point: 221 °C (dec.)
